{
  "source": "patent US11780834B2",
  "about": "“Solid forms of 3-((1R,3R)-1-(2,6-difluoro-4-((1-(3-fluoropropyl)azetidin-3-yl)amino)phenyl)-3-methyl-1,3,4,9-tetrahydro-2H-pyrido[3,4-b]indol-2-yl)-2,2-difluoropropan-1-ol and processes for preparing fused tricyclic compounds comprising a substituted phenyl or pyridinyl moiety, including methods …” (Hoffmann-La Roche Inc., priority 2018, dated 2023)",
  "key": {"[1]": {"assay": "In vitro metabolite identification", "assay_type": "in vitro ADME"}, "[2]": {"target": "T1, CYP2B6 (Homo sapiens, UniProt P20813)", "T1 construct": "from tissue; host or cells: human liver microsomes", "T1 sequence (P20813 1-491)": "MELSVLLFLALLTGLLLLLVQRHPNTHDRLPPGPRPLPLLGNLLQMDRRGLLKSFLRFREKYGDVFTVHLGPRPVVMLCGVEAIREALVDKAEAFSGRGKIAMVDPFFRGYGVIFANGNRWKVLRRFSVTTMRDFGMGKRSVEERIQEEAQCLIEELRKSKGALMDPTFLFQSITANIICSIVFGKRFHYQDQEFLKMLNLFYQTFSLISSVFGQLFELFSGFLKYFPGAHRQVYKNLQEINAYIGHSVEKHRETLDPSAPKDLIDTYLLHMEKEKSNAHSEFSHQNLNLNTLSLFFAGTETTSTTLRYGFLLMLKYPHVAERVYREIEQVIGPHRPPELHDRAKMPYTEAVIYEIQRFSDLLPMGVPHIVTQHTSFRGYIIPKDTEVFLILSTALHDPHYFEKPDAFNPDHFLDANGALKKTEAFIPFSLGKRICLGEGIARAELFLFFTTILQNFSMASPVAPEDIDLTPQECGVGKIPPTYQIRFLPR", "assay": "CYP2B6 inhibition in human liver microsomes", "assay_type": "in vitro ADME"}},
  "note": "Where a name gives a salt, the structure may show the parent alone.",
  "data": [
    {"smiles": "C[C@@H]1Cc2c([nH]c3ccccc23)[C@@H](c2c(F)cc(NC3CN(CCCF)C3)cc2F)N1CC(F)(F)CO", "note": "[Compound B, 3-((1R,3R)-1-(2,6-difluoro-4-((1-(3-fluoropropyl)azetidin-3-yl)amino)phenyl)-3-methyl-1,3,4,9-tetrahydro-2H-pyrido[3,4-b]indol-2-yl)-2,2-difluoropropan-1-ol tartrate]", "values": [
      {"measurement": "Major in vitro metabolic pathway", "setting": "[1]", "value": "UGT1A4-mediated glucuronidation"},
      {"measurement": "IC50", "setting": "[2]", "value": 13, "unit": "µM"}
    ]}
  ]
}
